The results in this text go back to article PMC7269146, “Jingzhaotoxin-X, a gating modifier of Kv4.2 and Kv4.3 potassium channels purified from the venom of the Chinese tarantula Chilobrachys jingzhao” (The Journal of Venomous Animals and Toxins Including …, 2020).

The target of this assay is T1, Kv4.2 (Rattus norvegicus, UniProt Q63881).
T1 construct: expressed in transfected cells; host or cells: HEK293t
T1 sequence (Q63881 1-630): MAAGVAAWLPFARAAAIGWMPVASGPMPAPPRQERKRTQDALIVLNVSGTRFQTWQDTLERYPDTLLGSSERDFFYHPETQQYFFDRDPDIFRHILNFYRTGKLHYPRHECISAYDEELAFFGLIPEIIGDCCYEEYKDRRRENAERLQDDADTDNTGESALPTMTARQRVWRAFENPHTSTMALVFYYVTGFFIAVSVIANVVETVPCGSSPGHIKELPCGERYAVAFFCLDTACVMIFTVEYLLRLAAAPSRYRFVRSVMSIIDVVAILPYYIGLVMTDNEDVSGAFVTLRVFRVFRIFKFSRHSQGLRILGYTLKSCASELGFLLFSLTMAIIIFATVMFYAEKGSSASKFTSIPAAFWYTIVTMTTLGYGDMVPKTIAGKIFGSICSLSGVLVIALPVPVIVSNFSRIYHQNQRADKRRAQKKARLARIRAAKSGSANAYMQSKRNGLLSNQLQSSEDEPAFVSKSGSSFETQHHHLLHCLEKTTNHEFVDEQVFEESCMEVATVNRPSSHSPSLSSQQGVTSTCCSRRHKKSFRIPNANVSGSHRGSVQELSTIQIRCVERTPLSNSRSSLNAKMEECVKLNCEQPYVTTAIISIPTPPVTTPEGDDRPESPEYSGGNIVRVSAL
In words: triple-pulse protocol, toxin dissociation by strong depolarization, Kv4.2 in HEK 293T cells. Format: cell-based. As to conditions: 500 nM; for inhibition at 0.5 µM: HEK-293T. The source says: Rat cDNA genes encoding Kv4.2 (Accession: NM_031730.2) and Kv4.3 (Accession: AB003587.1) were subcloned to vector pcDNA3.1. In addition, human cDNA genes encoding Nav1.7 (Accession: DQ857292.1) and Nav1.5 (Accession: AB158469.2) were subcloned to vectors pcDNA3.1-mod and pcDNA3.1, separately. Then, Kv4.2, Kv4.3, Nav1.5 and Nav1.7 constructs were transiently transfected into the human embryonic kidney 293t (HEK293t) cells using lipofectamine 2000 (Invitrogen, USA) in accordance with manufacturer protocols. Thereafter, HEK293 cells were inoculated within Dulbecco’s modified Eagle’s medium (DMEM) containing 10% fetal bovine serum (FBS) at 5% CO2 and 37°C. The Kv4.3 channel and the Kv4.2 counterpart were then transfected in the absence of β subunit. Subsequently, cells were incubated with a DNA-lipofectamine mixture (one reporter plasmid for green fluorescence protein and channel constructs) for 4-6 h, and were washed with the fresh medium.
An EPC-10 patch-clamp amplifier (HEKA, Germany) was employed to record the potassium currents at the configuration of whole-cell patch-clamp under an ambient temperature of 22-25°C. The resistance was 2.0-3.0 MΩ when the recording pipette contained a full volume of internal solution (supplemented with 140 mM KCl, 10 mM HEPES, 2.5 mM MgCl2, 5 mM ATP and 11 mM EGTA). KOH was utilized to adjust the pH to 7.2, while sucrose was employed to adjust the osmolarity to 310 mOsm/L. The culture medium was replaced with an external solution containing 150 mM NaCl, 2.5 mM CaCl2, 10 mM HEPES, 2 mM MgCl2, 5 mM KCl, and 10 mM D-glucose. Similarly, sucrose and NaOH were applied to adjust the osmolarity to 330 mOsm/L and pH to 7.4. […] The series resistance was maintained at about 5 MΩ, with 65-70% compensation. Finally, the leakage currents and linear capacitance were subtracted digitally according to the P/4 protocol.
Subsequently, we examined whether strong depolarization induced toxin dissociation from potassium channels. To address this question, the triple-pulse protocol was utilized, which used the test pulse of +20 mV after potent depolarization (+130 mV) to measure the available Kv4.2 currents (Fig. 6, inset). […] Furthermore, this toxin also affected the amplitude of outward Kv4.2 currents (46.3 ± 5.6%) by the second pulse (+130 mV). Typically, the amplitude of current acquired was nearly the same as that in controls induced by a third pulse (+20 mV), since the inhibition was only 17.5 ± 3.9% (Fig. 6, n = 7).
Figure 6. Potent depolarization dissociated the toxin-channel complex. The 300 ms test pulse at the voltage of +20 mV was utilized to induce the current traces. Prior to the application of test pulse, cells held at the voltage of -80 mV depolarized for 500 ms at the conditioning pulse of +130 mV and the holding potential of 50 ms (see inset). Following 500 nM JZTX-X perfusion, the test pulse-elicited current amplitude was nearly identical to the control after the 500 ms conditioning pulse.

Where two headings read alike, the source gives them in different places. Where a SMILES comes first, the peptide text is derived from it. Bridges are numbered along the chain shown (N, C = ends).

In the case of `CC(C)C[C@@H]1NC(=O)[C@H](CCCCN)NC(=O)[C@H](Cc2ccc(O)cc2)NC(=O)[C@@H]2CSSC[C@@H]3NC(=O)[C@H](Cc4ccc(O)cc4)NC(=O)[C@H](Cc4ccccc4)NC(=O)CNC(=O)[C@H](C)NC(=O)[C@H](CSSC[C@H](NC(=O)[C@@H](N)CC(C)C)C(=O)N[C@@H](CO)C(=O)N[C@@H](CCCNC(=N)N)C(=O)N[C@@H](CCC(=O)O)C(=O)NCC(=O)N[C@@H](CCC(=O)O)C(=O)N[C@@H](Cc4ccccc4)C(=O)N2)NC(=O)[C@H](CSSC[C@@H](C(=O)N[C@@H](Cc2ccc(O)cc2)C(=O)N[C@@H](CCCNC(=N)N)C(=O)N[C@@H](CC(N)=O)C(=O)O)NC(=O)[C@H](Cc2c[nH]cn2)NC(=O)[C@H](CC(C)C)NC(=O)[C@H](C(C)C)NC(=O)[C@H](Cc2ccccc2)NC(=O)[C@H](C)NC(=O)[C@H](CCCCN)NC3=O)NC(=O)[C@H](CCCCN)NC(=O)[C@H](CCCNC(=N)N)NC1=O` [JZTX-X, Jingzhaotoxin-X] (H-LCSREGEFCYKLRKCCAGFYCKAFVLHCYRN-OH; disulfide 2-16, 9-21, 15-28; N-terminus assumed), the “inhibition of Kv4.2 outward current, second pulse (+130 mV)” value (500 ms conditioning pulse, n = 7, 0.5 µM) is given as ~ 46%. Further, the “inhibition of Kv4.2 current, first pulse (+20 mV)” value (holding -80 mV, n = 7, 0.5 µM) is recorded as ~ 93%. Moreover, the inhibition at 0.5 µM is, setting by setting: (500 ms conditioning pulse, n = 7, read-out: inhibition of Kv4.2 outward current, second pulse (+130 mV)) 46.3 ± 5.6%; (after +130 mV conditioning pulse, n = 7, read-out: inhibition of Kv4.2 current, third pulse (+20 mV)) 17.5 ± 3.9%; (holding -80 mV, n = 7, read-out: inhibition of Kv4.2 current, first pulse (+20 mV)) 92.6 ± 3.2%.

One may read the inhibition as the percentage by which the read-out fell short of the control.
